In paper PMC8619673 (Cells, 2021):

What was measured:
[1] = target: T1, Aβ42 peptide (Homo sapiens, UniProt P05067); assay: Thioflavin T aggregation assay; format: biochemical
T1 construct: Aβ42 peptide (10 μM; Kelowna Int’l Scientific Inc., New Taipei City, Taiwan); purchased Kelowna Int’l Scientific Inc., New Taipei City, Taiwan
Experimental: To form Aβ aggregation, Aβ42 peptide (10 μM; Kelowna Int’l Scientific Inc., New Taipei City, Taiwan) was incubated with tested compounds (5–20 μM) in 150 mM NaCl and 20 mM Tris-HCl (pH8.0) at 37 °C for 48 h. Thioflavin T (10 μM; Sigma-Aldrich) was added to the Aβ mixture and incubated at room temperature for 5 min. The fluorescence intensity was recorded at 420 nm excitation and 485 nm emission by an FLx800 microplate reader (Bio-Tek, Winooski, VT, USA). Half maximal effective concentration (EC50) was estimated by a method of interpolation.

[2] = system: CREB; assay: Western blot, p-CREB; format: cell-based, Human; conditions: 5 µM; induced untreated 81%
Experimental: (§1) Cellular proteins were prepared using a lysis buffer containing NaCl (150 mM), ethylene diamine tetraacetic acid (EDTA, 1 mM, pH8.0), Tris-HCl (50 mM, pH8.0), ethylene glycol tetraacetic acid (EGTA, 1 mM, pH8.0), sodium dodecyl sulfate (SDS, 0.1%), sodium deoxycholate (SD, 0.5%), Triton X-100 (1%), and protease (Sigma-Aldrich), and phosphatase (Abcam, Cambridge, MA, USA) inhibitor cocktails. After quantitation by protein assay kit (Bio-Rad, Hercules, CA, USA), 20 µg proteins were separated by SDS-polyacrylamide (10%) gel electrophoresis and transferred to polyvinylidene difluoride (PVDF) membranes (Sigma-Aldrich) using a Mini Trans-Blot cell (Bio-Rad). After blocking, the membrane was probed with anti-TRKB, anti-p-TRKB (Y516), anti-p-TRKB (Y817) (1:500; Cell Signaling, Danvers, MA, USA), anti-ERK, anti-p-ERK (T202/Y204) (1:1000; Cell Signaling), anti-AKT, anti-p-AKT (S473) (1:1000; Cell Signaling), anti-CREB, anti-p-CREB (S133) (1:1000; Millipore, Billerica, MA, USA), anti-BDNF, anti-BCL2 (1:500; Santa Cruz Biotechnology, Santa Cruz, CA, USA), anti-BAX (1:1000; Cell Signaling), anti-β-tubulin (1:500; Sigma-Aldrich), or anti-GAPDH (1:1000, MDBio, Taipei, Taiwan) antibody. The immune complexes were detected using goat anti-mouse or goat anti-rabbit IgG antibody conjugated with horseradish peroxidase (1:5000; GeneTex, Irvine, CA, USA) and chemiluminescent substrate (Millipore).

[3] = system: ERK; assay: Western blot, p-ERK; format: cell-based, Human; conditions: 5 µM; induced untreated 79%
Experimental: as §1

[4] = system: AKT; assay: Western blot, p-AKT; format: cell-based, Human; conditions: 5 µM; induced untreated 81%
Experimental: as §1

[5] = system: TRKB; assay: Western blot, TRKB and p-TRKB; format: cell-based, Human; conditions: 5 µM; for p-TRKB (Y516) protein level relative to uninduced cells (100%): induced untreated 40%; for p-TRKB (Y817) protein level relative to uninduced cells (100%): induced untreated 71%; for TRKB expression relative to uninduced cells (100%): scrambled shRNA-infected Aβ-expressing cells, untreated 80%
Experimental: as §1
Lentiviral short hairpin RNA (shRNA) targeting TRKB (TRCN0000002243, TRCN0000002245, and TRCN0000002246) and a negative-scrambled control (TRC2.Void) were obtained from the National RNAi Core Facility, IMB/GRC, Academia Sinica (Taipei, Taiwan). As described, cells were plated on 6- or 24-well plates, with retinoic acid added on day 1. Cells were infected with lentivirus (multiplicity of infection, 3 for each shRNA), with polybrene (8 µg/mL; Sigma-Aldrich) on the next day. Cells were pretreated with tested compounds (5 µM) for 8 h after changing medium, followed by doxycycline on day 3. Cells were collected for further analysis on day 9. The hairpin sequences of targeting shRNA were below: • TRCN0000002243: 5’-[…]ctcgag[…]-3’ • TRCN0000002245: 5’-[…]ctcgagATGTT-[…]-3’ • TRCN0000002246: 5’-[…]ctcgag[…]-3’ • TRC2.Void: 5’-[…]ctcgag[…]-3’

[6] = system: BCL2; assay: Western blot, BCL2; format: cell-based, Human; conditions: 5 µM; induced untreated 72%
Experimental: as §1

[7] = system: Aβ-GFP RNA; assay: Real-time PCR of Aβ-GFP RNA; format: cell-based, Human; conditions: 5 μM; untreated 28.6; not significantly affected
Description: RNA was extracted using TRIzol reagent (Invitrogen, Carlsbad, CA, USA), followed by treatment with DNase I (Stratagene, La Jolla, CA, USA). cDNA was synthesized by SuperScript™ III reverse transcriptase (Invitrogen) according to manufacturer’s instruction and used to determine Aβ-GFP mRNA expression by StepOnePlus™ Real-time PCR system (Applied Biosystems, Foster City, CA, USA) using customized GFP primers (forward primer: 5′-[…]-3′, reverse primer: 5′-[…]-3′), FAM/NFQ probe (5′-[…]-3′), and TaqMan hypoxanthine phosphoribosyltransferase 1 (HPRT1) endogenous control (VIC/MGB probe, 4326321E) (Applied Biosystems). Fold change was calculated using the formula 2^ΔCt, ΔCT = CT (HPRT1)—CT (GFP), in which CT indicates the number of threshold cycles.

[8] = system: BDNF; assay: Western blot, BDNF; format: cell-based, Human; conditions: 5 µM; for BDNF 14 kDa protein level relative to uninduced cells (100%): induced untreated 42%; for BDNF 32 kDa protein level relative to uninduced cells (100%): induced untreated 88%
Experimental: as §1

T1 sequence (P05067 672-713 limits assumed): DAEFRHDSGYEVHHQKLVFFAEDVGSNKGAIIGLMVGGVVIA

Compound	Aβ aggregation inhibition (in words) ([1]; compound 20 μM, thioflavin T assay)	p-CREB (S133) protein level relative to uninduced cells (100%) [2]	p-ERK (T202/Y204) protein level relative to uninduced cells (100%) [3]	p-AKT (S473) protein level relative to uninduced cells (100%) [4]	p-TRKB (Y516) protein level relative to uninduced cells (100%) [5]	p-TRKB (Y817) protein level relative to uninduced cells (100%) [5]	TRKB expression relative to uninduced cells (100%) [5]	BCL2 protein level relative to uninduced cells (100%) [6]	Relative Aβ-GFP/HPRT1 RNA level [7]	BDNF 14 kDa protein level relative to uninduced cells (100%) [8]	BDNF 32 kDa protein level relative to uninduced cells (100%) [8]	Thioflavin T fluorescence (Aβ aggregation) ([1]; compound 20 µM, Aβ42 10 μM, 37 °C 2 days, 621 AU without compound, 151 AU without incubation)
CCOC(=O)c1cc2c(O)cccc2oc1=O [ZN014, ethyl 5-hydroxy-2-oxo-2H-chromene-3-carboxylate]	did not inhibit Aβ aggregation	98–101%	95–107%	91–110%	92–100%	94–108%	77–81%	104–116%	29.2–30.0 folds of induction	124–140%	113–119%	–
O=C(/C=C/c1ccccc1O)c1c(O)c2ccccc2oc1=O [ZN015, (E)-4-hydroxy-3-(3-(2-hydroxyphenyl)acryloyl)-2H-chromen-2-one]	–	98–101%	95–107%	91–110%	92–100%	94–108%	77–81%	104–116%	29.2–30.0 folds of induction	124–140%	113–119%	403 AU
